Test results from patent US12528777B2, “Quinazolinones derivatives for treatment of non-alcoholic fatty liver disease, preparation and use thereof” (Council of Scientific and Industrial Research, priority 2020, dated 2026).
Entries after “also recorded” stand apart in the source; their conditions may differ.

Key:
Assay type in all cases: cell-based
ATGL [1] = test: Reversal of ATGL decrease in COP1 overexpressing HepG2 cells; settings: myc-DDK-COP1, 5 μM, 24 hours
Protocol: COP1 is an E3 ubiquitin ligase with ATGL as one of its targets for ubiquitination and subsequent proteasomal degradation by 26S proteasome. Therefore, it is only legit for ATGL levels to decrease upon COP1 overexpression. To this end, HepG2 cells were transfected with 500 ng of myc-DDK-COP1 plasmid using Lipofectamine 2000 and treated with 5 μM of the compounds 9 and 10 for 24 hours. 48 hours post transfection, cells were harvested and western blot was carried out.

ATGL [2] = test: Western blot of ATGL level in HepG2 cells; set-up: key to Increase in ATGL level: + = slight or in insignificant; ++ = Moderate; +++ and ++++ = active; +++ and ++++ = active; +++++ = very active; settings: HepG2 cells, western blot, score
Outline: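 HepG2 cells were treated with compound 24 h (10 μM screen; 50 nM–5 μM dose series) and lysed. 30 μg protein was western blotted for ATGL, with actin as loading reference. ATGL increase was expressed as percent of the 1.6-fold siCOP1 maximum and plotted against log concentration for EC50.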

HepG2 cells = test: Confocal microscopy: lipid droplets in oleate induced HepG2 cells; set-up: key to Reduction in Lipid Droplets: + = slight or in insignificant; ++ = Moderate; +++ and ++++ = active; +++ and ++++ = active; +++++ = very active
Outline: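 HepG2 cells were loaded with 250 μM oleate and given compound in DMSO (10 μM screen; 10 nM–5 μM dose series) for 24 h; BSA as negative control. Lipid droplets stained with BODIPY/Hoechst, imaged confocally; mean droplets per cell counted over ~20 cells versus oleate-only cells.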

ATGL [3] = test: Immunoprecipitation assay of ATGL ubiquitination in myc-ATGL HepG2 cells; settings: 5 μM, 24 hours, MG-132, poly ubiquitin smear
Protocol: To this end, an immunoprecipitation assay was performed wherein HepG2 cells overexpressing myc-ATGL were transfected with HA-Ubiquitin and treated with 5 μM of the compounds 9, 10, 107, 215, 219 and 238. MG-132, a proteasomal inhibitor, was added 4 hours before harvesting the cells. Immune complexes were pulled down with anti-myc antibody and immunoblot was done using anti-HA antibody. The resultant smears on the blot reflect the ubiquitination status of ATGL.
For checking the change in the ubiquitination status of ATGL on compound treatment, Myc-ATGL expressing HepG2 cells (ATGL overexpressing cell line) was transfected with 2 μg of a plasmid harboring the HA tagged ubiquitin gene using Lipofectamine 2000 reagent (Invitrogen) in OptiMEM media (HiMedia). Fresh DMEM complete media was added after 8-10 hours of transfection. After roughly 24 hours of transfection, 5 μM of the compounds 9, 10 and 107 was added and cells were harvested post 24 hours of treatment. 4 hours prior to cell harvesting, 10 μM of proteasomal inhibitor MG132 (Calbiochem, Merck Millipore) was added to the cells. Proteins were isolated from the cells and protein concentration was estimated as described previously. 30 μl of PureProteome Protein A/G Mix Magnetic Beads (Merck Millipore) was taken in a 1.5 ml microcentrifuge tube, placed in a Magna Rack (Merck Millipore) and allowed to adhere to the side of the tube. 200 μg of protein was used for immunoprecipitation reaction in a reaction volume of 1 ml. 2 μl of anti-Myc primary antibody (Cell Signaling Technology) was added and the tube was incubated overnight at 4° C. in a rotary shaker. The next day, the tube was placed back in the Magna Rack and the beads were allowed to attach to the tube. To remove non-specific and unattached reactants, 1×PBS and 0.1% Triton-X was used for washing. 2× loading dye and Lysis Buffer was added and heated at 95° C. for 10 minutes to allow the immune complex to dislodge from the magnetic beads. Western Blot was performed subsequently as described before with anti-HA primary antibody for immunoblotting (Cell Signaling Technology). The activity trends of the synthesized compounds are disclosed in Table-5.

COP1 = COP1 (Homo sapiens, UniProt Q8NHY2); test: Immunoprecipitation assay of COP1 autoubiquitination in HepG2 cells; settings: 5 μM, 24 hours, MG-132
Protocol: COP1 is capable of auto ubiquitinating its own self and getting degraded via the proteasomal pathway. To probe into this, HepG2 cells were co-transfected with HA tagged Ubiquitin and myc-flag tagged COP1. The transfected cells were treated with 5 μM of compounds 9, 10, 107 and 238 for 24 hours. MG-132, a proteasomal inhibitor, was added 4 hours before harvesting the cells. Immune complexes were pulled down with anti-myc antibody and immunoblot was done using anti-HA antibody. […] Thus, the compounds of the present disclosure could be potent therapeutic targets by being able to block the proteasomal degradation of ATGL which would then be able to carry out its lipolytic action and reverse the symptoms of steatosis.
For checking the autoubiquitination status of COP1, HepG2 cells were cotransfected with 2 μg each of Myc-DDK-COP1 and HA-Ub plasmids using Lipofectamine 2000 reagent (Invitrogen) in OptiMEM media (HiMedia). The rest of the procedure is similar to that done for Myc-ATGL.

Chain of COP1 (Q8NHY2 whole entry): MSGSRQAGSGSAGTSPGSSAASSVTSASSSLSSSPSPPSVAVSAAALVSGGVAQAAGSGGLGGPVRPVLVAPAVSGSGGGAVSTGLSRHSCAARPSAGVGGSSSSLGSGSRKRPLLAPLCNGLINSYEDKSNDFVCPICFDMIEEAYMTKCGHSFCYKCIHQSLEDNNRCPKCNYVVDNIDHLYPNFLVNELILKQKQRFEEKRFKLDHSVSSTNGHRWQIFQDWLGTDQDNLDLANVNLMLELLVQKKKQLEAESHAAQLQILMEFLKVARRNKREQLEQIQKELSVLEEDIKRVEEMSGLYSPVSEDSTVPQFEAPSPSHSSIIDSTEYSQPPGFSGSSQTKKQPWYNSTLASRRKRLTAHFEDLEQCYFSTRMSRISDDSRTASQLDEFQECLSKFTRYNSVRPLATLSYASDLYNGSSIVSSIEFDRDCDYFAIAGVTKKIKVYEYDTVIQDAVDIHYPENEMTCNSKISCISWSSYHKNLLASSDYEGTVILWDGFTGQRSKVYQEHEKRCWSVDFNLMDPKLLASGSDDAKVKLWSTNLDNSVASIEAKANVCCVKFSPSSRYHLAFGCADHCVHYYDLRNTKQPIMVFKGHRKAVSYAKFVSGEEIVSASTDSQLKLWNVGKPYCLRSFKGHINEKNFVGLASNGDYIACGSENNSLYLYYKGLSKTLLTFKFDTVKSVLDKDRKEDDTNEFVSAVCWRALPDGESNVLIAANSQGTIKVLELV

COCCn1cnc2ccc(NC(=O)Nc3ccc(C(C)=O)cc3)cc2c1=O [Compound 10, 1-(4-acetylphenyl)-3-(3-(2-methoxyethyl)-4-oxo-3,4-dihydroquinazolin-6-yl)urea]
Restoration of ATGL level upon COP1 overexpression (ATGL [1]): could restore the reduced ATGL level; also recorded: could restore ATGL to its normal level | Increase in ATGL level (ATGL [2]): ++++ | Number of lipid droplets (HepG2 cells; HepG2 cells, 250 μM oleate induction): decrease in the number of lipid droplets | Reduction in Lipid Droplets (HepG2 cells; oleate induced HepG2 cells, score): ++++ | ATGL ubiquitination in HepG2 cells (ATGL [3]): reduction, however, could not be seen | COP1 autoubiquitination in HepG2 cells (COP1): markedly reduce COP1's auto ubiquitination property
